{"source": "PubChem BioAssay (NCI)", "assay_in_all_cases": "inhibition of tumour cell growth, NCI panel, 48 h", "key": {"ACHN renal": {"tested_on": "ACHN renal"}, "CAKI-1 renal": {"tested_on": "CAKI-1 renal"}, "DU-145 prostate": {"tested_on": "DU-145 prostate"}, "KM12 colon": {"tested_on": "KM12 colon"}, "M14 melanoma": {"tested_on": "M14 melanoma"}, "MCF7 breast": {"tested_on": "MCF7 breast"}, "NCI-H226 lung": {"tested_on": "NCI-H226 lung"}, "RXF 393 renal": {"tested_on": "RXF 393 renal"}, "SW-620 colon": {"tested_on": "SW-620 colon"}, "786-0 renal": {"tested_on": "786-0 renal"}, "A498 renal": {"tested_on": "A498 renal"}, "CCRF-CEM leukemia": {"tested_on": "CCRF-CEM leukemia"}, "EKVX NSCLC": {"tested_on": "EKVX NSCLC"}, "HCT-116 colon": {"tested_on": "HCT-116 colon"}, "HOP-62 NSCLC": {"tested_on": "HOP-62 NSCLC"}, "HOP-92 NSCLC": {"tested_on": "HOP-92 NSCLC"}, "HS 578T breast": {"tested_on": "HS 578T breast"}, "HT29 colon": {"tested_on": "HT29 colon"}, "IGROV1 ovarian": {"tested_on": "IGROV1 ovarian"}, "K-562 leukemia": {"tested_on": "K-562 leukemia"}, "LOX IMVI melanoma": {"tested_on": "LOX IMVI melanoma"}, "MALME-3M melanoma": {"tested_on": "MALME-3M melanoma"}, "MOLT-4 leukemia": {"tested_on": "MOLT-4 leukemia"}, "NCI-H23 lung": {"tested_on": "NCI-H23 lung"}, "NCI-H460 lung": {"tested_on": "NCI-H460 lung"}, "NCI/ADR-RES ovarian": {"tested_on": "NCI/ADR-RES ovarian"}, "OVCAR-3 ovarian": {"tested_on": "OVCAR-3 ovarian"}, "OVCAR-4 ovarian": {"tested_on": "OVCAR-4 ovarian"}, "OVCAR-5 ovarian": {"tested_on": "OVCAR-5 ovarian"}, "OVCAR-8 ovarian": {"tested_on": "OVCAR-8 ovarian"}, "RPMI-8226 leukemia": {"tested_on": "RPMI-8226 leukemia"}, "SF-295 CNS": {"tested_on": "SF-295 CNS"}, "SK-MEL-28 melanoma": {"tested_on": "SK-MEL-28 melanoma"}, "SK-MEL-5 melanoma": {"tested_on": "SK-MEL-5 melanoma"}, "SNB-19 CNS": {"tested_on": "SNB-19 CNS"}, "SR leukemia": {"tested_on": "SR leukemia"}, "TK-10 renal": {"tested_on": "TK-10 renal"}, "UACC-257 melanoma": {"tested_on": "UACC-257 melanoma"}, "A549 NSCLC": {"tested_on": "A549 NSCLC"}, "BT-549 breast": {"tested_on": "BT-549 breast"}, "HCC-2998 colon": {"tested_on": "HCC-2998 colon"}, "HCT-15 colon": {"tested_on": "HCT-15 colon"}, "HL-60(TB) leukemia": {"tested_on": "HL-60(TB) leukemia"}, "MDA-MB-231 breast": {"tested_on": "MDA-MB-231 breast"}, "MDA-MB-435": {"tested_on": "MDA-MB-435"}, "PC-3 prostate": {"tested_on": "PC-3 prostate"}, "SF-268 CNS": {"tested_on": "SF-268 CNS"}, "SF-539 CNS": {"tested_on": "SF-539 CNS"}, "SK-MEL-2 melanoma": {"tested_on": "SK-MEL-2 melanoma"}, "SK-OV-3 ovarian": {"tested_on": "SK-OV-3 ovarian"}, "SN12C renal": {"tested_on": "SN12C renal"}, "SNB-75 CNS": {"tested_on": "SNB-75 CNS"}, "UACC-62 melanoma": {"tested_on": "UACC-62 melanoma"}}, "note": "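In this assay, cells in 96-well plates receive the compound at five concentrations for 48 hours. Endpoints are linearly interpolated between the surrounding concentrations. Definition used: TGI = concentration required for complete inhibition of growth.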"}
{"smiles": "CC(C)(C)c1ccc2c(c1)CNCCNCCNCc1cc(C(C)(C)C)ccc1OCC1(CO2)COc2ccc(C(C)(C)C)cc2CNCCNCCNCc2cc(C(C)(C)C)ccc2OC1", "values": [{"measurement": "TGI", "setting": "ACHN renal", "value": 2.83, "unit": "µM"}, {"measurement": "TGI", "setting": "CAKI-1 renal", "value": 3.17, "unit": "µM"}, {"measurement": "TGI", "setting": "DU-145 prostate", "value": 2.83, "unit": "µM"}, {"measurement": "TGI", "setting": "KM12 colon", "value": 0.562, "unit": "µM"}, {"measurement": "TGI", "setting": "M14 melanoma", "value": 1.83, "unit": "µM"}, {"measurement": "TGI", "setting": "MCF7 breast", "value": 0.379, "unit": "µM"}, {"measurement": "TGI", "setting": "NCI-H226 lung", "value": 1.97, "unit": "µM"}, {"measurement": "TGI", "setting": "RXF 393 renal", "value": 3.74, "unit": "µM"}, {"measurement": "TGI", "setting": "SW-620 colon", "value": 1.33, "unit": "µM"}]}
{"smiles": "COc1ccc(C[C@H]2COC(=O)[C@@H]2Cc2ccc(O)cc2)cc1OC", "values": [{"measurement": "TGI", "setting": "786-0 renal", "value": "> 100", "unit": "µM"}, {"measurement": "TGI", "setting": "A498 renal", "value": "> 100", "unit": "µM"}, {"measurement": "TGI", "setting": "ACHN renal", "value": "> 100", "unit": "µM"}, {"measurement": "TGI", "setting": "CCRF-CEM leukemia", "value": "> 100", "unit": "µM"}, {"measurement": "TGI", "setting": "DU-145 prostate", "value": "> 100", "unit": "µM"}, {"measurement": "TGI", "setting": "EKVX NSCLC", "value": "> 100", "unit": "µM"}, {"measurement": "TGI", "setting": "HCT-116 colon", "value": "> 100", "unit": "µM"}, {"measurement": "TGI", "setting": "HOP-62 NSCLC", "value": "> 100", "unit": "µM"}, {"measurement": "TGI", "setting": "HOP-92 NSCLC", "value": "> 100", "unit": "µM"}, {"measurement": "TGI", "setting": "HS 578T breast", "value": "> 100", "unit": "µM"}, {"measurement": "TGI", "setting": "HT29 colon", "value": "> 100", "unit": "µM"}, {"measurement": "TGI", "setting": "IGROV1 ovarian", "value": "> 100", "unit": "µM"}, {"measurement": "TGI", "setting": "K-562 leukemia", "value": "> 100", "unit": "µM"}, {"measurement": "TGI", "setting": "LOX IMVI melanoma", "value": "> 100", "unit": "µM"}, {"measurement": "TGI", "setting": "M14 melanoma", "value": "> 100", "unit": "µM"}, {"measurement": "TGI", "setting": "MALME-3M melanoma", "value": "> 100", "unit": "µM"}, {"measurement": "TGI", "setting": "MOLT-4 leukemia", "value": "> 100", "unit": "µM"}, {"measurement": "TGI", "setting": "NCI-H226 lung", "value": "> 100", "unit": "µM"}, {"measurement": "TGI", "setting": "NCI-H23 lung", "value": "> 100", "unit": "µM"}, {"measurement": "TGI", "setting": "NCI-H460 lung", "value": "> 100", "unit": "µM"}, {"measurement": "TGI", "setting": "NCI/ADR-RES ovarian", "value": "> 100", "unit": "µM"}, {"measurement": "TGI", "setting": "OVCAR-3 ovarian", "value": "> 100", "unit": "µM"}, {"measurement": "TGI", "setting": "OVCAR-4 ovarian", "value": "> 100", "unit": "µM"}, {"measurement": "TGI", "setting": "OVCAR-5 ovarian", "value": "> 100", "unit": "µM"}, {"measurement": "TGI", "setting": "OVCAR-8 ovarian", "value": "> 100", "unit": "µM"}, {"measurement": "TGI", "setting": "RPMI-8226 leukemia", "value": "> 100", "unit": "µM"}, {"measurement": "TGI", "setting": "SF-295 CNS", "value": "> 100", "unit": "µM"}, {"measurement": "TGI", "setting": "SK-MEL-28 melanoma", "value": "> 100", "unit": "µM"}, {"measurement": "TGI", "setting": "SK-MEL-5 melanoma", "value": "> 100", "unit": "µM"}, {"measurement": "TGI", "setting": "SNB-19 CNS", "value": "> 100", "unit": "µM"}, {"measurement": "TGI", "setting": "SR leukemia", "value": "> 100", "unit": "µM"}, {"measurement": "TGI", "setting": "SW-620 colon", "value": "> 100", "unit": "µM"}, {"measurement": "TGI", "setting": "TK-10 renal", "value": "> 100", "unit": "µM"}, {"measurement": "TGI", "setting": "UACC-257 melanoma", "value": "> 100", "unit": "µM"}]}
{"smiles": "CN(C)CCCn1c(-c2cc(C(C)(C)C)c(O)c(C(C)(C)C)c2)csc1=Nc1ccccc1", "values": [{"measurement": "TGI", "setting": "A498 renal", "value": 6.94, "unit": "µM"}, {"measurement": "TGI", "setting": "A549 NSCLC", "value": 3.46, "unit": "µM"}, {"measurement": "TGI", "setting": "ACHN renal", "value": 9.14, "unit": "µM"}, {"measurement": "TGI", "setting": "BT-549 breast", "value": 7.8, "unit": "µM"}, {"measurement": "TGI", "setting": "CAKI-1 renal", "value": 52.4, "unit": "µM"}, {"measurement": "TGI", "setting": "EKVX NSCLC", "value": 4.26, "unit": "µM"}, {"measurement": "TGI", "setting": "HCC-2998 colon", "value": 3.65, "unit": "µM"}, {"measurement": "TGI", "setting": "HCT-15 colon", "value": 9.05, "unit": "µM"}, {"measurement": "TGI", "setting": "HL-60(TB) leukemia", "value": 8.76, "unit": "µM"}, {"measurement": "TGI", "setting": "HOP-62 NSCLC", "value": 3.34, "unit": "µM"}, {"measurement": "TGI", "setting": "KM12 colon", "value": 3.6, "unit": "µM"}, {"measurement": "TGI", "setting": "M14 melanoma", "value": 3.84, "unit": "µM"}, {"measurement": "TGI", "setting": "MDA-MB-231 breast", "value": 20.8, "unit": "µM"}, {"measurement": "TGI", "setting": "MDA-MB-435", "value": 5, "unit": "µM"}, {"measurement": "TGI", "setting": "MOLT-4 leukemia", "value": 0.547, "unit": "µM"}, {"measurement": "TGI", "setting": "NCI-H226 lung", "value": 3.59, "unit": "µM"}, {"measurement": "TGI", "setting": "NCI-H23 lung", "value": 3.73, "unit": "µM"}, {"measurement": "TGI", "setting": "NCI-H460 lung", "value": 6.58, "unit": "µM"}, {"measurement": "TGI", "setting": "NCI/ADR-RES ovarian", "value": 3.45, "unit": "µM"}, {"measurement": "TGI", "setting": "OVCAR-3 ovarian", "value": 3.04, "unit": "µM"}, {"measurement": "TGI", "setting": "OVCAR-5 ovarian", "value": 4.19, "unit": "µM"}, {"measurement": "TGI", "setting": "PC-3 prostate", "value": 3.58, "unit": "µM"}, {"measurement": "TGI", "setting": "RXF 393 renal", "value": 4.01, "unit": "µM"}, {"measurement": "TGI", "setting": "SF-268 CNS", "value": 3.95, "unit": "µM"}, {"measurement": "TGI", "setting": "SF-295 CNS", "value": 3.26, "unit": "µM"}, {"measurement": "TGI", "setting": "SF-539 CNS", "value": 3.38, "unit": "µM"}, {"measurement": "TGI", "setting": "SK-MEL-2 melanoma", "value": 8.51, "unit": "µM"}, {"measurement": "TGI", "setting": "SK-MEL-28 melanoma", "value": 4.73, "unit": "µM"}, {"measurement": "TGI", "setting": "SK-OV-3 ovarian", "value": 3.94, "unit": "µM"}, {"measurement": "TGI", "setting": "SN12C renal", "value": 6.15, "unit": "µM"}, {"measurement": "TGI", "setting": "SNB-19 CNS", "value": 4.52, "unit": "µM"}, {"measurement": "TGI", "setting": "SNB-75 CNS", "value": 8.34, "unit": "µM"}, {"measurement": "TGI", "setting": "SW-620 colon", "value": "> 100", "unit": "µM"}, {"measurement": "TGI", "setting": "TK-10 renal", "value": 5.45, "unit": "µM"}, {"measurement": "TGI", "setting": "UACC-257 melanoma", "value": 3.39, "unit": "µM"}, {"measurement": "TGI", "setting": "UACC-62 melanoma", "value": 4.62, "unit": "µM"}]}
